According to patent publication US11039618B2, “Metam salts and polysulfide soil treatment” (Tessenderlo Kerley, Inc, priority 2016, dated 2021):

Columns and labels:
[1] = tested on: Verticillium; test: Jar test 2016: Verticillium microsclerotia colonies in treated soil, dry soil plating on NP-10; assay type: cell-based, Verticillium dahliae; details: Metam 40 gal/acre (190 kg active/ha); 2016
Description: These investigations were performed under laboratory conditions in an initial jar test. We also investigated the pathogen control efficacy of LSS treatments, at 30 gal/acre (90 pounds/acre or 101 Kg/ha of calcium polysulfide) and at 90 gal/acre (276 pounds/acre or 310 Kg/ha of calcium polysulfide), and combined Metam/LSS treatments using Sectagon® brand metam at 20 gal/acre Metam (84 pounds/acre or 94 Kg/ha of metam sodium) with 40 gal/acre LSS (122 pounds/acre or 138 Kg/ha of calcium polysulfide); and at 30 gal/acre Metam (126 pounds/acre or […] of metam sodium) with 20 gal/acre LSS (60 pounds/acre or 67 kg/ha of calcium polysulfide). […] This may be due to lower water saturation in the 2016 tests compared to the saturation in 2015 tests, which was near 100%.
Each treatment listed in Table 1 was replicated 4 times. Verticillium levels in soil were assessed by dry incubation on semi selective media (NP-10) method. Soil collected from a Romaine lettuce field in Salinas, Calif. was used for the investigation. […]
Experimental Setup: Seven treatments were installed in 4 replicates each. […] The equivalent of gal/acre was calculated on the assumption that on acre of soil has an average weight of 3,625,895 lbs. […] Afterwards, soil was split between the two laboratories and were assessed according to the method described.
Verticillium levels in soil were assessed by dry incubation on semi selective media (NP-10). […]
The quantity of Verticillium in soil was assessed by dry soil plating on NP-10 semi-selective medium. […] After that, remaining soil was gently washed off the plates and the number of Verticillium microsclerotia colonies were counted on each plate under a microscope. The number of microsclerotia colonies is used as a standard method to quantify Verticillium in soil and was extrapolated for 1 g soil.
Results were analyzed in a one-way ANOVA (P=0.05) and a Fisher LSD Post-Hoc test. […]
Verticillium assessments were performed parallel in two separate laboratories. […] The quantity of Verticillium in soil was assessed by dry soil plating on NP-10 semi-selective medium. […]

[2] = tested on: soilborne fungi; test: Visual observation of general fungal growth on the plates (jar test); assay type: cell-based; details: observed visually on the plates
Description: The general impact of LSS on fungal growth was also observed visually on the plates.

[3] = tested on: Verticillium; test: Example 6: Verticillium population in treated farm soil samples; assay type: cell-based; details: soil from another location
[4] = tested on: Verticillium dahliae; test: Plate tests: Verticillium counts in treated greenhouse soil; assay type: cell-based; details: 20 gal./acre metam
Description: Seven days after treatment, one soil sample per replicate was taken. V. dahliae control efficacy was assessed according to the methods below. Soil mixture was dried two weeks under greenhouse conditions. The quantity of V. dahliae in the soil was/will be assessed by dry soil plating on semi-selective medium. Dry soil samples were crushed and sieved through a #20 mesh. A small portion of each sample was incubated on six NP-10 semi-selective plates with a 6-stage Impactor (Anderson Samplers Inc., Atlanta, Ga.), using stages 2 and 3. Semi-selective NP-10 medium was prepared according to Kabir et al. (2004) and incubated at 24° C. in the dark for four weeks after spreading 0.5 g of soil. After incubation, the remaining soil was be gently washed off the plates and the number of V. dahliae microsclerotia colonies were counted on each plate under a microscope. The number of microsclerotia colonies equals the quantity of V. dahliae in soil and were extrapolated to 1 g of soil.
Plate tests were performed on selected samples to determine the Verticillium counts in treated soil through Aug. 17, 2017. Plate tests were performed as described previously. The untreated control comparative sample 1 averaged 32.5 ms per gram of soil. For reasons not known, the water check comparative sample 2, with no active ingredients added, contained only 11.5 ms per gram of soil. […]

CNC(=S)S [Metam, sodium methyldithiocarbamate]
Microsclerotia (Verticillium) per gram of soil, ms/g, 2016 [1]: 6.5 ms/g
reduction of fungal growth of soilborne fungi [2]: ~100%
suppression of the Verticillium [3]: only modest suppression
average Verticillium CFU per gram of dry soil ([3]; average over rates: LSS 45 and 90 gal/acre, metam sodium 20 and 40 gal/acre, mixture 20 and 40 gal metam with 45 gal LSS, untreated 41): 30 CFU per gram of dry soil
Verticillium dahliae population [4]: 3 ms per gram of soil
